Where “and” joins values, the source holds several entries; their conditions need not be identical. Equal values may be shown once.
Legend:
[1] = test system: diet-induced NASH obese insulin resistant mice; assay: DIN mouse model: liver weight and liver lipid levels; format: in vivo; set-up: liver weight: unit not given here; conditions: 20 mg/kg
Method: (§1) Male C57Bl/6J mice (8 weeks old) were housed in enriched ventilated cages (31×12.5×12.7 cm) throughout the experimental phase. Animals' cages litters were changed at least once a week. Animal were housed 5 per cage on inverted 12-hour light cycle (at 09:00 am lights off), 22±2° C. and 55±10% relative humidity. The acclimation period was 20 days. During the acclimation period, all mice were fed a standard diet (RM1 (E) 801492, SDS) and tap water ad libitum. After the acclimation period, mice were fed with the DIN diet (60% fat, cholesterol enriched) and fructose-enriched tap water ad libitum until the end of the experiment.
(§2) At 6 weeks of diet, mice were 4-hour fasted (09:00 am to 1:00 pm) and blood (150 μl/EDTA) was collected at 01:00 pm by retro-orbital bleeding under isoflurane anesthesia. Mice were then allocated in 2 homogenous groups (n=12/group) according to their plasma levels of ALT (average levels: 685U/L), AST (average levels: 627U/L) and HOMA-IR index (average value: 4.7), into 2 homogenous groups (see values at day 0 in Tables 15A and 15B ALT/AST and Tables 16A and 16B for HOMA-IR). Mice were then treated once daily by oral gavage with vehicle (Group 1) or Compound #37 at 20 mg/kg (Group 2) for 70 days.
To investigate whether Compound #37 improves pre-existing steatosis/NASH pathology, a study was conducted using a 16-week diet-induced NASH mouse model. In this model, mice develop steatosis that progresses with inflammation and fibrosis that mimic many of the observed pathologies in human nonalcoholic fatty liver disease (NAFLD) and NASH (Hebbard & George, 2010). For 6 weeks, mice were fed a high-fat, high-cholesterol diet and provided drinking water containing fructose to induce liver pathology (Charlton et al, 2011). After 6 weeks, the mice were divided into 2 groups with similar mean aspartate aminotransferase (AST) and alanine aminotransferase (ALT) values (n=12 mice), although it should be noted that AST and ALT concentrations within both groups were higher and with greater variability than anticipated (e.g., mean ALT 677 U/L [SD, 401 U/L] in the vehicle control group and 693 U/L [SD, 365 U/L] in the Compound #37 group). After the animals were divided into 2 groups, the diet was continued for 10 additional weeks during which time 1 group received vehicle and the other was treated with 20 mg/kg/day Compound #37.

FAS = assay: DIN mouse model: hepatic FAS gene expression; format: in vivo; set-up: key to 2^DDct: expression relative to vehicle group, normalized to 18S; conditions: 20 mg/kg group; for 18S: Gene Expression: FAS table, 18S reference; for 2^DDct / DDct / Dct / FAS: Gene Expression: FAS
Method: Gene expression analysis. Hepatic expression levels of genes involved in lipid metabolism (FAS, SREBP1, ACC1, SCD1), cholesterol metabolism (HMG-CoAR, LDLR), SREBP proteolysis (SCAP, INSIG1), ER stress (PERK), oxidative stress (NRF2), inflammation (MCP-1), and fibrosis (collagen 1α1) were quantified by RTqPCR. Expression level was normalized to 18S gene expression and relative expression to vehicle group was calculated with the […] method.
as §1, §2
Hepatic expression levels of genes involved in lipid (FAS, SREBP1, ACC1, SCD1), cholesterol metabolism (HMG-CoAR, LDLR), in SREBP proteolysis (SCAP, INSIG1), in ER stress (PERK), oxidative stress (NRF2), and inflammation (MCP-1) were not changed. However, expression of collagen 1α1, involved in liver fibrosis, was reduced by 66% in mice treated with Compound #37 (p<0.05 vs. vehicle).

ob/ob mice = assay: ob/ob mice: liver Oil Red O staining; format: in vivo, mouse; conditions: 8 weeks
Method: (§3) Groups of mice were either untreated (group 1) or treated for 8 weeks with vehicle (group 2), or with Compound #37 at 5 mg/kg (group 3), 10 mg/kg (group 4), or 20 mg/kg (group 5). Treatment was daily by oral gavage in vehicle (20% HPβCD). Values are presented as mean±standard error of the mean (sem). A t test was performed to compare the untreated group and the vehicle group. Then Compound #37-treated groups were compared to the vehicle-treated group with a 1-way ANOVA+Dunnett's post-test. […] For each test, a p<0.05 was considered significant. Of note, animal #39, group 1 was excluded from the statistical analysis, due to low values for all parameters measured. Some other values were considered as out-liners and excluded from the statistical analysis when the value was far below the mean minus 2 SD. Excluded values are marked with an asterisk in Tables 21-23.

[2] = ob/ob mice: tolerability, weight gain and food intake; format: in vivo; conditions: over 8 weeks, all treatment groups
Method: as §3
These plasma lipid results are consistent with SCAP/SREBP pathway inhibition seen in tissue-specific SCAP knockout mice (Horton et al, 2002) and with inhibition of SREBP in vivo (Moon et al, 2012).

[3] = test system: 60% high fat Paigen diet induced NASH mouse model; assay: Short-term Paigen-diet NASH mouse model: liver Oil Red O staining; format: in vivo; conditions: 40 mg/kg p.o. (stopped after 4 administrations), 9 days of diet

CC(C)Cc1cc(-c2nc(-c3ccc(NS(=O)(=O)C(F)(F)F)cc3Cl)cs2)ccn1 [Compound 37, N-(3-chloro-4-(2-(2-isobutylpyridin-4-yl)thiazol-4-yl)phenyl)-1,1,1-trifluoromethanesulfonamide]
Liver weight increase ([1]; 70 days): 21%
Hepatic total cholesterol levels increase ([1]; 70 days, p<0.05 vs. vehicle): 17%
liver cholesterol ([1]; group mean, n 11): 28.2 µg/mg
liver fatty acids ([1]; group mean, n 11): 63.2 nmol/mg
liver triglycerides ([1]; group mean, n 11): 133.8 µg/mg
liver weight ([1]; group mean, n 11): 2.56
liver cholesterol ([1]; individual animals): 27.4 µg/mg and 32.2 µg/mg and 25.8 µg/mg and 28.4 µg/mg and 28.3 µg/mg and 27.1 µg/mg and 29.9 µg/mg and 20.7 µg/mg and 31.3 µg/mg and 34.0 µg/mg and 25.3 µg/mg
liver fatty acids ([1]; individual animals): 72.2 nmol/mg and 67.2 nmol/mg and 56.2 nmol/mg and 82.8 nmol/mg and 56.8 nmol/mg and 47.8 nmol/mg and 68.4 nmol/mg and 43.9 nmol/mg and 70.0 nmol/mg and 76.7 nmol/mg and 53.2 nmol/mg
liver triglycerides ([1]; individual animals): 262.5 µg/mg and 203.3 µg/mg and 72.2 µg/mg and 162.3 µg/mg and 101.9 µg/mg and 53.6 µg/mg and 178.1 µg/mg and 48.9 µg/mg and 91.5 µg/mg and 195 µg/mg and 102.6 µg/mg
liver weight ([1]; individual animals): 3.24 and 2.72 and 1.97 (2×) and 2.74 and 2.39 and 2.54 and 2.44 and 2.67 and 3.05 and 2.40
18S (FAS; individual animal, 20 mg/kg): 12.55 (2×) and 12.84 and 12.43 and 12.35 (2×) and 12.59 and 11.73 and 12.51 and 11.5 and 11.55
18S (FAS; mean, n 11): 12.3
2^DDct (FAS; individual animal, 20 mg/kg): 2.46 and 1.29 and 0.37 and 1.47 and 0.36 and 1.30 and 0.81 and 0.64 and 0.33 and 0.21 and 1.77
DDct (FAS; individual animal, 20 mg/kg): −1.30 and −0.37 and 1.45 and −0.56 and 1.48 and −0.38 and 0.31 and 0.64 and 1.62 and 2.28 and −0.82
Dct (FAS; individual animal, 20 mg/kg): 7.2 and 8.13 and 9.95 and 7.94 and 9.98 and 8.12 and 8.81 and 9.14 and 10.12 and 10.78 and 7.68
FAS (FAS; individual animal, 20 mg/kg): 19.75 and 20.68 and 22.79 and 20.37 and 22.33 (2×) and 20.71 and 20.54 and 21.65 and 21.62 and 20.03
2^DDct (FAS; mean, n 11): 1
DDct (FAS; mean, n 11): 0.40
Dct (FAS; mean, n 11): 8.9
FAS (FAS; mean, n 11): 21.2
liver oil-red-O quantification (ob/ob mice; 5 mg/kg daily oral gavage, group mean): 6.7%
liver oil-red-O quantification (ob/ob mice; 5 mg/kg daily oral gavage, individual animal values, 5 mg/kg): 0.67% and 2.91% and 8.82% and 9.22% and 4.41% and 6.15% and 8.06% and 8.93% and 8.85% and 9.33%
liver oil-red-O quantification (ob/ob mice; 10 mg/kg daily oral gavage, group mean): 13.23%
liver oil-red-O quantification (ob/ob mice; 10 mg/kg daily oral gavage, individual animal values, 10 mg/kg): 19.18% and 18.46% and 13.25% and 3.65% and 8.46% and 8.67% and 16.07% and 17.12% and 16.00% and 11.43%
liver oil-red-O quantification (ob/ob mice; 20 mg/kg daily oral gavage, group mean): 8.5%
liver oil-red-O quantification (ob/ob mice; 20 mg/kg daily oral gavage, individual animal values, 20 mg/kg): 13.45% and 0.42% and 15.53% and 9.89% and 4.95% and 8.17% and 4.74% and 7.06% and 15.71% and 5.38%
tolerability [2]: generally well tolerated
Liver O red Oil staining, % labeling ([3]; group mean): 1.87%
Liver O red Oil staining, % labeling ([3]; individual animals): 2.53% and 2.54% and 1.12% and 1.28%
